In patent US8686224B2, “Plant defense signal peptides” (priority 2005, dated 2014):
No end group written: not given here.

What was measured:
[1] = test system: AtproPep1 gene expression; test: Hormone treatments of intact plants, RT-PCR of AtproPep1 and paralogs; assay type: in vivo, Arabidopsis thaliana; settings: for expression of the AtproPep1 gene in intact plants: sprayed: MeJA 250 μM, ethephon 7 mM, within an hour; for expression of AtproPep1 paralogs after spraying: At5g64905, At5g64900, At5g64890, At5g09980
Protocol: Plant stress and hormone treatments. To examine effects of cold stress, plants were placed in a refrigerated growth chamber set to 2° C. To simulate drought stress conditions, plants grown under standard growth chamber conditions were grown without watering. Methyl jasmonate (Bedoukian Research Inc., Danbury Conn.) was applied as a 625 μM solution in 0.1% Triton X-100 to the upper surface of leaves and the plants were incubated in plexiglass boxes. Methyl salicylate (Sigma-Aldrich, St. Louis Mo.), was applied to leaf surfaces at 2 mM in a 0.1% Triton X-100 solution. Ethephon (Phytotechnology Laboratories, Shawnee Mission Kans.) was sprayed on plants as a 7 mM solution in 0.1% Triton X-100 (Sigma-Aldrich, St. Louis Mo.). ABA effects were analyzed by spraying plants with a 100 μM solution (mixed isomer, Sigma-Aldrich, St. Louis Mo.) in 0.1% Triton X-100 (Denekamp and Smeekens, Plant Physiol. 132, 1415-1423, 2003).
Semi-quantitative RT-PCR analysis of relative gene expression levels. RNA was isolated using Trizol reagent and manufacturer's instructions (Invitrogen. Carlsbad Calif.), and 2 μg of RNA template was reverse transcribed with a RETROscript kit (Ambion, Austin Tex.). PCR reactions were carried out with ExTaq Hot Start polymerase and reagents (Fisher Scientific, Pittsburgh Pa.). The AtproPep1 forward and reverse primers with the respective sequences of 5′ […] 3′ (SEQ ID NO: 59) and 5′ […] 3′ (SEQ ID NO: 60) generated a 310 bp intron-spanning product. Primers to β-tubulin (At5g62690) of 5′ […] 3′ (SEQ ID NO: 73) and 5′ […] 3′ (SEQ ID NO: 74) generated a 681 base pair intron-spanning product. An initial denaturing/polymerase activating step of 5 minutes at 94° C. was followed by 31 repetitions of the following three steps: a thirty second denaturation phase at 94° C., a thirty second annealing period at 55.5° C., and a one minute elongation step at 72° C. The amplification program was terminated with a 10 minute final 72° C. elongation phase.
Expression analysis of AtproPep1 in response to abiotic and biotic cues. As a first step in seeking a possible function for AtproPep1 and its encoded peptide, the basal expression level of the gene was assessed in leaves, stems, roots and flowers of Arabidopsis plants was studied using semi-quantitative RT-PCR analysis of AtproPep1 gene expression in response to treatment of leaves with MeJA, ethephon, MeSA, and AtPep1. The relative abundance of the proAtPep1 transcript was estimated from the expression of the β-tubulin gene as a control. Leaves were wounded by crushing once across the mid-vein with a hemostat. Plants were sprayed with a 250 μM solution of MeJA in 0.1% Triton X-100; with a […] solution of MeSA in 0.1% Triton X-100 or with a 7 mM solution of ethephon in 0.1% Triton X-100. […] Total RNA was extracted and analyzed.

[2] = test system: AtPEPR1 and AtPEPR2 transcripts; test: Expression analysis of AtPEPR1 and AtPEPR2 (Northern hybridization, quantitative RT-PCR); assay type: in vivo, Arabidopsis thaliana; settings: within 30 min
Protocol: Expression analysis of AtPEPR1 and AtPEPR2. […] In order to elucidate the role of AtPEPR2 in AtPeps signal transduction, the gene expression patterns were analyzed in comparison with AtPEPR1.

[3] = target: T1, AtPEPR1 (Arabidopsis thaliana, UniProt Q9SSL9); test: Medium alkalinization of transgenic tobacco cells expressing AtPEPR1; assay type: cell-based
T1 construct: Tobacco cells were transformed with a CaMV-35S-AtPEPR1 gene; expressed in transfected cells; host or cells: tobacco suspension-cultured cells (Agrobacterium-mediated, CaMV 35S promoter)
T1 sequence (Q9SSL9 29-1123): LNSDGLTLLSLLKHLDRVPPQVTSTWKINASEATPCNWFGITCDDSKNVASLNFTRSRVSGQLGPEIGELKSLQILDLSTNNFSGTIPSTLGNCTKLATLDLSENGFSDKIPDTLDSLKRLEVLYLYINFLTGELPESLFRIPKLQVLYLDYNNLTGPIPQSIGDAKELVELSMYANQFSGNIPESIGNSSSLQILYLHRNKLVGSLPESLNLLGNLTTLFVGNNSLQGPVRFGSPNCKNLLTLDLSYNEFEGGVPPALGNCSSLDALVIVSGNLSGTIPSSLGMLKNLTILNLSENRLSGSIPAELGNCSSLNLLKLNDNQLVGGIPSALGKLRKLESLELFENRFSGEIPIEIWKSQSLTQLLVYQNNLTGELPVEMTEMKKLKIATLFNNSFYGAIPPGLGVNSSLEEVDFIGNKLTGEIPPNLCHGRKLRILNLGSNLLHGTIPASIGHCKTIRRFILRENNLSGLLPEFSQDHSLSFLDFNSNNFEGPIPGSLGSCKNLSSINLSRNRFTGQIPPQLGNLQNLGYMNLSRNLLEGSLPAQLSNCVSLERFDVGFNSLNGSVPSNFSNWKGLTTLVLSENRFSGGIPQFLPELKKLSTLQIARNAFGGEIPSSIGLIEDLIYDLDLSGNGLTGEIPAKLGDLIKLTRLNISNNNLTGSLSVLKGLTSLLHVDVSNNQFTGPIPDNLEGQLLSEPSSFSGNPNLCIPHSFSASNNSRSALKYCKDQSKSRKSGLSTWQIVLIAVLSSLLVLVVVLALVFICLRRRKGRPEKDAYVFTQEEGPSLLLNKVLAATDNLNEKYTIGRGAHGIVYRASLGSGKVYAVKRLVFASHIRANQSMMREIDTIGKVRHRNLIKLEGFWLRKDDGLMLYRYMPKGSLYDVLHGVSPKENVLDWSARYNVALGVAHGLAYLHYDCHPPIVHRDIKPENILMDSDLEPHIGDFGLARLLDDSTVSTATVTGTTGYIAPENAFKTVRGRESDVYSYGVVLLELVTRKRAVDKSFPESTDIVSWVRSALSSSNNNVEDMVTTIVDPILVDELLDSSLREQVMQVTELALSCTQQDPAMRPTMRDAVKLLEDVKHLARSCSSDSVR
Text: Tobacco cells were transformed with a CaMV-35S-AtPEPR1 gene to determine whether the foreign receptor protein was targeted to the cell surface, where, in response to AtPep1, it would activate intracellular signaling to effect the alkalinization of the medium of the transgenic tobacco cells. Expression of the AtPEPR1 gene was confirmed by RT-PCR analysis of RNA from three independently transformed tobacco cell lines. […] AtPep2-7 was also supplied to the transgenic tobacco cells expressing AtPEPR1.
(§1) To clarify whether AtPEPR2 binds to AtPep1, the AtPEPR2 coding region was fused to the CaMV 35S promoter and introduced into tobacco suspension-cultured cells by Agrobacterium. Tobacco cells expressing AtPEPR1 and GUS genes were also created as positive and negative controls, respectively. […] These transgenic lines were analyzed for alkalinizing activity as previously described (Pearce et al., Proc. Natl. Acad. Sci. USA 98, 12843-12847, 2001).
(§2) The response to all AtPep peptides in transgenic tobacco cells expressing either AtPEPR1 or AtPEPR2 was analyzed by the medium alkalinization assay.

[4] = test system: GmPROPEP and soybean defense-related gene expression; test: Soybean gene expression by semi-quantitative RT-PCR; assay type: in vivo
Protocol: Precursor gene expression of soybean homologues of the AtPep peptide, GmPROPEP1, GmPROPEP2 and GmPROPEP3, were analyzed by semi-quantitative RT-PCR. GmPROPEP2 and GmPROPEP3 were expressed in leaves, stems and roots. GmPROPEP1 was expressed mainly in roots, and very weakly in leaves and stems. The transcripts of GmPROPEP1 increased 4-fold 1 hour after supplying MeJA and 3-fold 8 hours after wounding. The transcripts of GmPROPEP2 increased 5-fold 2 hours after supplying MeJA. GmPep1-3 also affected the precursor gene expression. The GmPROPEP1 was induced by infiltration of GmPep1-3 (50 nM), and GmPROPEP2 was induced by GmPep2 (50 nM) and GmPep3 (50 nM) infiltration.
To examine whether GmPep1-3 are involved in defense responses, expression of soybean defense-related genes were analyzed by semi-quantitative RT-PCR after GmPep1-3 infiltration. The transcripts of D6aH/CYP93a1, a biosynthetic enzyme of the soybean phytoalexin glyceollin (Schopfer et al., FEBS Lett. 432: […], 1998), were induced 2 to 3-fold by GmPep1-3 infiltration.

[5] = test system: OsPEPR1; test: Medium alkalinization of transgenic tobacco cells expressing OsPEPR1; assay type: cell-based, rice
Sequence of OsPEPR1 (as listed by the source): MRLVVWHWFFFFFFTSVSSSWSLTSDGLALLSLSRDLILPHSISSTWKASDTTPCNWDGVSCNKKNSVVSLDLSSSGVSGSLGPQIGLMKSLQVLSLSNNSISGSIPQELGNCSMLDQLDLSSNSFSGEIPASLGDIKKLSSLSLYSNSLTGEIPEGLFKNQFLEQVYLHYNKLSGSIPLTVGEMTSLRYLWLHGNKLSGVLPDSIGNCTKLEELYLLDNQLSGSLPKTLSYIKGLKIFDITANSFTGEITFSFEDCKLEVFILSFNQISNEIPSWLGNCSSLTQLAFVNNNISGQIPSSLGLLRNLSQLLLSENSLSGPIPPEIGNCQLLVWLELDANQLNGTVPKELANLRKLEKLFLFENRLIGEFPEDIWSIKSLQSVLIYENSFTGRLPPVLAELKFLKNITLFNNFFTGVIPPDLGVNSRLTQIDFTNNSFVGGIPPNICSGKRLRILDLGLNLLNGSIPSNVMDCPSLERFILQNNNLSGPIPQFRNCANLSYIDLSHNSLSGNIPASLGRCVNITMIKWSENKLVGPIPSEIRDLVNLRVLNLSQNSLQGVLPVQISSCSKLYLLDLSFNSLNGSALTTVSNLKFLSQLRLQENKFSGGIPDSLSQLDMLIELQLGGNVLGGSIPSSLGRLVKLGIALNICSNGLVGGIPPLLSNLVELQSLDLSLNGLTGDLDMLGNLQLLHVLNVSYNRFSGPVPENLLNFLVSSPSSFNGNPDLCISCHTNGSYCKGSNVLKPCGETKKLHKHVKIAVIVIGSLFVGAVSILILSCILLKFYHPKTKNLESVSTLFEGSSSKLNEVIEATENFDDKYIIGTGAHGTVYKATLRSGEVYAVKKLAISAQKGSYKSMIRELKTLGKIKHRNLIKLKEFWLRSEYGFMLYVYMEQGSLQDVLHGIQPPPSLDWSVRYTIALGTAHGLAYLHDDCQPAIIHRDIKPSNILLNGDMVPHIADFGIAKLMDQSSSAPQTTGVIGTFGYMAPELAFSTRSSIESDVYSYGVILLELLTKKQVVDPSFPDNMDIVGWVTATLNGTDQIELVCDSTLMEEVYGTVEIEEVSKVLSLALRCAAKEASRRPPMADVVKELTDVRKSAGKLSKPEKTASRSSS
Text: (§3) We identified rice homologues of AtPEPR1 in the Rice Annotation Project database (see the website located at www.rapdb.dna.affrc.go.jp). The rice homologues, OsPEPR1 (Os08g0446200) and OsPEPR2 (Os08g0446400), have 60% and 62% amino acid similarities, respectively. The OsPEPR1 has 26 LRRs in the extracellular region, which is the same as AtPEPR1. The OsPEPR2 has a shorter extracellular region with 22 LRRs. Transgenic tobacco cells expressing either OsPEPR1 or OsPEPR2 were created to examine the possibility of receptor binding to monocot peptides. OsPep3a, OsPep3b, OsPep3c, ZmPep1 and ZmPep4a were supplied to suspension cultured transgenic tobacco cells, and medium pH was measured. OsPep3a, OsPep3b, ZmPep1 and ZmPep4a caused medium alkalinization in OsPEPR1 expressing cells with a 1.2 pH unit increase and a half-maximal activity of 0.25 nM.

[6] = test system: OsPEPR2; test: Medium alkalinization of transgenic tobacco cells expressing OsPEPR2; assay type: cell-based, rice
Sequence of OsPEPR2 (as listed by the source): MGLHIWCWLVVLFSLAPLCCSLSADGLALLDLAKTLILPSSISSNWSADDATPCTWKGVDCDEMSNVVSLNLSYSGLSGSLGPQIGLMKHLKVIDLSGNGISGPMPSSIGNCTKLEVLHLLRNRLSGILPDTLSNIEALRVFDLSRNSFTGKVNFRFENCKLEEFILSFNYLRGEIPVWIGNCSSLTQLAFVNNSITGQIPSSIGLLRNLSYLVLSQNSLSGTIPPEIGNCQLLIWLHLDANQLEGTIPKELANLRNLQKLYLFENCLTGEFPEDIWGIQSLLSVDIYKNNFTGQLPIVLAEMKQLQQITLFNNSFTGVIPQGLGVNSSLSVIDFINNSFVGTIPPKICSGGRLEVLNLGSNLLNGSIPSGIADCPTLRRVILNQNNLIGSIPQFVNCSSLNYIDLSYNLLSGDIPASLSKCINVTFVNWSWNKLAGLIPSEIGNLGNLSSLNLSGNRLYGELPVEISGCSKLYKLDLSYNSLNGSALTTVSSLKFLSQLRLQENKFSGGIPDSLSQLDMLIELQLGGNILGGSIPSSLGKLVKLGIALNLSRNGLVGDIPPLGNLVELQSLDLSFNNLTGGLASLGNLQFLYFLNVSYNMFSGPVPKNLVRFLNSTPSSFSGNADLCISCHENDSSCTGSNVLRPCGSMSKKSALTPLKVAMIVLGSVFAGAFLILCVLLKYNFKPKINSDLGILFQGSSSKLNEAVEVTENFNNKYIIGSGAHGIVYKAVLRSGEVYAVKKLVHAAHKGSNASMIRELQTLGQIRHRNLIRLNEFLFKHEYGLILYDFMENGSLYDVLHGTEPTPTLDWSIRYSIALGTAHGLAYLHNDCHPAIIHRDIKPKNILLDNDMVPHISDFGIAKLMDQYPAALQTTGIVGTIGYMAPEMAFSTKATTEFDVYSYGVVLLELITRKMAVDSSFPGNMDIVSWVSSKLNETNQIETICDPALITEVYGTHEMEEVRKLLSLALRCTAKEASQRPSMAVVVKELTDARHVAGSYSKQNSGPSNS
Text: as §3

[7] = target: T2, AtPEPR2 (Arabidopsis thaliana, UniProt Q9FZ59); test: Medium alkalinization of transgenic tobacco cells expressing AtPEPR2; assay type: cell-based
T2 construct: the AtPEPR2 coding region was fused to the CaMV 35S promoter and introduced into tobacco suspension-cultured cells; expressed in transfected cells; host or cells: tobacco suspension-cultured cells, transformed by Agrobacterium, kanamycin-selected
T2 sequence (Q9FZ59 27-1088): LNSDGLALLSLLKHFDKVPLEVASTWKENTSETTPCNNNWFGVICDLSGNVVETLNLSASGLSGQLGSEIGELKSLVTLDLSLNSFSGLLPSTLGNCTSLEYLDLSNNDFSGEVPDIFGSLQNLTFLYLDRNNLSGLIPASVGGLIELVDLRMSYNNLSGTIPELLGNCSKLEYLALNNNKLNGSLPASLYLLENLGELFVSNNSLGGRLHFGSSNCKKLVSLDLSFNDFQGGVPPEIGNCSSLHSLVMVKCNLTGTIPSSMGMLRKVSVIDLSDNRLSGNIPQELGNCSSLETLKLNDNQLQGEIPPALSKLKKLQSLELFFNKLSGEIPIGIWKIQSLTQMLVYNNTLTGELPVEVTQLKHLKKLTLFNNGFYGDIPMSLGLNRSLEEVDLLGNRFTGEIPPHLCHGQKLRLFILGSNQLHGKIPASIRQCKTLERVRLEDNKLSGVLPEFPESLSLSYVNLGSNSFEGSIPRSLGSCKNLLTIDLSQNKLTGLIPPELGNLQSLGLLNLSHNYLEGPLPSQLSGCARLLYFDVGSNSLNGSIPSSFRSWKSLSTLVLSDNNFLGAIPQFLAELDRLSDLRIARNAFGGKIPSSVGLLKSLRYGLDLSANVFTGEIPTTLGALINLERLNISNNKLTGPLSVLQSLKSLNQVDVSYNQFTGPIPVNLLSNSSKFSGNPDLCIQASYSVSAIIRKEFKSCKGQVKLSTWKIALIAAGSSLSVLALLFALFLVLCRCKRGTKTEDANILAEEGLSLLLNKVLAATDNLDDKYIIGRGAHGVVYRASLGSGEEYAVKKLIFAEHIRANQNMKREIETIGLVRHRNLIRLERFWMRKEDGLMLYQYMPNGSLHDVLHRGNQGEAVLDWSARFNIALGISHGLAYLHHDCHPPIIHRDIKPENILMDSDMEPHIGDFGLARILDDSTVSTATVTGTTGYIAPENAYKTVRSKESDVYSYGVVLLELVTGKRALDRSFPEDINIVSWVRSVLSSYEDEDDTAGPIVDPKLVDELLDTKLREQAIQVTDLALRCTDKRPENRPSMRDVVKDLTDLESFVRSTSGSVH
Protocol: as §1, §2

For `O=P(O)(O)CCCl` [ethephon], the “expression of the AtproPep1 gene in intact plants” value [1] was “induced a strong expression”.

`COC(=O)c1ccccc1O` [MeSA, methyl salicylate, reference compound] was tested, and the “expression of AtproPep1 paralogs after spraying” value [1] was “strongly induced only two of the genes”.

For “EIKARGKNKTKPTPSSGKGGKHN [AtPep3, DNKAKSKKRDKEKPSSGRPGQTN]”, the “induction of AtPEPR1 and AtPEPR2 transcripts” value [2] was “strong inducer” and the maximal change ([3]; AtPEPR1 expressing tobacco cells) was 1.2 pH units.

`CC/C=C\CC1C(=O)CCC1CC(=O)OC` (centres unmarked) [MeJA, methyl jasmonate] was tested, and the “expression of AtproPep1 paralogs after spraying” value [1] was “expressed relatively strongly”, the “expression of the AtproPep1 gene in intact plants” value [1] was “induced a strong expression” and the “induction of AtPEPR1 and AtPEPR2 transcripts” value [2] was “induced”. The “increase of GmPROPEP1 transcripts” value ([4]; 1 hour after supplying) was 4 fold and the “increase of GmPROPEP2 transcripts” value ([4]; 2 hours after supplying) was 5 fold.

With “SLAGANVLVRDAPPETGGGPHHN (SLAGANVLVRDAPPETGGGPHHN) [OsPep3c]” the medium alkalinization activity [5] was “did not show any activity”, the medium alkalinization activity [6] was “weak activity” and the “medium pH increase” value ([6]; peptide at 250 nM) was 0.5 pH unit.

Work on “SLNVMRKGIRKQPVSSGKRGGVN [AtPep2, SLNVMRKGIRKQPVSSGKRGGVN]” yielded an EC50 [3] of about 250 pM and an EC50 [7] of about 250 pM.
